Source: article PMC11111404, “Discovery of potent small-molecule inhibitors of lipoprotein(a) formation” (Nature, 2024)
Read-outs that look alike come from different tables or passages of the source.

Key:
[1] = target: T1, K-2 to K-3 domains of rat plasminogen (Rattus norvegicus, UniProt Q01177); assay: ITC binding to rat plasminogen K-2 to K-3
T1 construct: made in house
T1 sequence (Q01177 184-352 limits assumed): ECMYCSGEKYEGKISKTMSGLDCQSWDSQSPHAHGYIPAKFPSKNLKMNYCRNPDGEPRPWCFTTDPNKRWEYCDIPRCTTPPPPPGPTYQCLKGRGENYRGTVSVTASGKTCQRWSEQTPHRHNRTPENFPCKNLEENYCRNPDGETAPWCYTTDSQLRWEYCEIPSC
Method: (§1) The nucleotide sequence encoding the human LPA gene (NP_005568.2) was inserted into a mammalian expression vector containing a cytomegalovirus promoter. Protein expression was performed by transient transfection of human embryonic kidney 293 (HEK293) cells cultured in serum-free medium. The culture medium was collected five days after transfection and human apo(a) protein was purified using L-lysine affinity chromatography. Nucleotide sequences encoding various KIV domains of human apo(a) and human and rat plasminogen were inserted into a pET21a Escherichia coli expression vector. […] All protein concentrations were determined by A280. […] The microsyringe was loaded with a solution of the respective compounds, with the concentration measured by quantitative nuclear magnetic resonance, and was inserted into the calorimetric cell prefilled with the respective recombinant proteins of known concentration in ITC buffer. […] Thermodynamic parameters were calculated using the basic equation of thermodynamics (ΔG = ΔH - TΔS = -RTlnKd), where ΔG, ΔH and ΔS are the changes in free energy, enthalpy and entropy of binding, respectively; Kd is the equilibrium dissociation constant; T is the absolute temperature ([…]); and R is the gas constant (1.987 cal mol^-1 K^-^1). […]

[2] = target: T2, K-2 to K-3 domains of human plasminogen (Homo sapiens, UniProt P00747); assay: ITC binding to human plasminogen K-2 to K-3
T2 construct: that for the K-2 to K-3 domains of human plasminogen; made in house
T2 sequence (P00747 184-352 limits assumed): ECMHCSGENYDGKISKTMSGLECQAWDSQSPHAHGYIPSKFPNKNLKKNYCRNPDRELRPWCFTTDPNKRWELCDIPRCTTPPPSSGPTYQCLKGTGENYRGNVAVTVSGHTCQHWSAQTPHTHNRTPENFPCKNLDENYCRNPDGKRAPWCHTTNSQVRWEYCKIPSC
Method: as §1

Plg mRNA = assay: Rat hepatic Plg mRNA after oral dosing; assay type: in vivo; conditions: rats, daily oral dosing
Method: Male Sprague Dawley rats (Charles River, average body weight 310 g, aged eight to nine weeks old) were housed in cages with a standard light cycle (12-h light, 12-h dark), at room temperature (22 ± 4 °C), with a relative humidity of 30–70%. Rats were identified by numbers on the cage cards. After arrival, rats were fed on a normal diet (Harlan Teklad diet 2014) and randomized to treatment groups (n = 5 per group) by baseline plasma plasminogen concentration and activity using a BRAT. LSN3441732 and LY3473329 were administered QD orally at three dose levels (3.7, 12.3 and 37 mg kg^−1; 3.2, 10.5 and 31.6 mg kg^−1 per dose, respectively) or vehicle (10 ml kg^−1, 1% HEC, 0.25% Tween-80, Antifoam) for four days. Terminal blood was drawn under general anaesthesia 24 h after the day-4 oral dose. Plasma samples were collected via the abdominal aorta into a premeasured anticoagulant BD Vacutainer used for blood collection (2.7 ml, buffered sodium citrate). […]
RNA was isolated from the liver using the PureLink RNA Mini Kit (Invitrogen) and quantified using the NanoDrop spectrophotometer (Thermo Fisher Scientific). […] Quantitative PCR was conducted using TaqMan reagents and primers (Plg Rn00585167_m1, Gapdh Rn99999916_s1). Relative quantitation was calculated using the comparative Ct method. Statistical significance was evaluated using JMP v.16.1.0 software (SAS).

[3] = Pharmacokinetics in monkey plasma after oral dosing; assay type: in vivo; conditions: for AUC(0-t): day 15, read-out: AUC(0-96 hr)
Method: Plasma samples were collected from all monkeys before dosing and at four-hour time points only on days 1, 3, 5, 9 and 14. A full PK profile was obtained in the first three monkeys of each dose group on day 15, collecting samples before dosing and 1, 2, 4, 8, 12, 24, 48 and 96 h after dosing. Concentrations of compounds were evaluated in plasma samples using a non-GLP LC–MS/MS assay. The non-compartmental plasma PK parameters were calculated using Watson (v.7.5).

plasmin activity = system: plasmin activity; design: method as in PMID 37638695; conditions: human phase 1 study; cited from earlier work

| Kd [1] [nM] | fold higher affinity for rat than human plasminogen K-2 to K-3 [1] | Kd [2] [nM] | levels of hepatic Plg mRNA (Plg mRNA) | Tmax ([3]; Chinese cynomolgus, oral 1 mg/kg, day 15) [h] | Cmax ([3]; Chinese cynomolgus, oral 10 mg/kg, day 15) [µM] | AUC(0-t) ([3]; Chinese cynomolgus, oral 10 mg/kg) [µM·h] | Tmax ([3]; Chinese cynomolgus, oral 100 mg/kg, day 15) [h] | AUC(0-t) ([3]; cynomolgus, oral 100 mg/kg) [µM·h] | SMILES | plasmin activity at oral doses lowering Lp(a) (plasmin activity) |
| --- | --- | --- | --- | --- | --- | --- | --- | --- | --- | --- |
| < 10 | more than 100 fold | 1600 | unchanged | – | – | – | – | – | Cl.Cl.O=C(Nc1cccc(C[C@H](C(=O)O)[C@H]2CCNC2)c1)Nc1cccc(C[C@H](C(=O)O)[C@H]2CCNC2)c1 [LSN3441732] | – |
| – | – | – | – | 7 ± 5.7 | 3.47 | 207 | 1 ± 1 | 294 | O=C(O)[C@@H](Cc1cccc(CN(Cc2cccc(C[C@H](C(=O)O)[C@H]3CCNC3)c2)Cc2cccc(C[C@H](C(=O)O)[C@H]3CCNC3)c2)c1)[C@H]1CCNC1 [LY3473329] | without affecting plasmin activity |
